Series [1] concerns Bacillus subtilis (ATCC 663). To be noted: ATCC 663.
Series [2] can be described thus: physchem. It counts as physicochemical. To be noted: pH 7, aqueous with cosolvent or surfactant or cyclodextrin. The method, then:
Peptide solubility in 10 mM HEPES buffer with 1% DMSO was measured by monitoring tryptophan absorbance. A concentrated (6.0-8.0 mM) peptide stock solution in DMSO was diluted 100 times (5 μL of the stock into 500 jtl of 10 mM HEPES buffer, pH 7.0). The mixture was sonicated for 30 mins and then subject to centrifugation (14,000 rpm, 10 mins) to remove possible precipitate. The supernatant (400 μL) was transferred to a quartz cuvette and the peptide concentration was determined by tryptophan absorbance at 280 nm (ε=22760 M−1 cm-1). The UV/Vis spectra of the supernatant can be seen in FIG. 1 and FIG. 5.

The subject of series [3] is Streptococcus pyogenes (ATCC 19615). To be noted: ATCC 19615.
Series [4] deals with Staphylococcus aureus (ATCC 6538). The following applies: ATCC 6538.
The subject of series [5] is human red blood cells (hRBCs). Description: Haemoglobin release from human red blood cells. Type of series: cell-based. The following applies: for Toxicity HC50: red cells of human. Here is the method:
Fresh human red blood cells (hRBCs) were centrifuged at 3500 rpm and washed with PBS buffer until the supernatant was clear. The hRBCs were then resuspended and diluted to a final concentration of 1% (v/v) in PBS and used immediately. 15 μL of serial dilution (2-fold) of peptides in DMSO or DMSO alone as a negative control were added to 1.5 mL of hRBCs in PBS. The resulting mixture was gently shaken to mix well and incubated at 37° C. for 1 hr, followed by centrifugation at 3500 rpm for 10 min using tabletop centrifuge. Aliquots (50 μL) of the supernatant (in triplicates) were transferred into a sterile 96-well plate containing 50 μL of H2O in each well. Release of hemoglobin was monitored at 415 nm using a microtiter plate reader. Percentage hemolysis was calculated using percentage hemolysis=100·(A415, peptide-A415,DMSO)/(A415, complete hemolysis-A415, DMSO), where complete hemolysis is achieved by mixing hRBCs with 1% TritonX-100.

The subject of series [6] is human red blood cells (hRBCs). The series can be described thus: K+ leakage from hRBCs (flame atomic emission). It counts as cell-based. The method, then:
The rest of supernatant (1.2 mL) from each sample prepared as described in the hemoglobin leakage assay was transferred into a new sterile eppendorf tube and subject to the K+ concentration measurement using a flame-atomic emission spectrometer (λem=766.5 nm, Perkin Elmer Atomic absorption Spectrometer 3100, acetylene/air flame). Three readings were taken for each sample and averaged as final results. The fraction of K+ leakage from hRBCs was calculated as percentage K+ leaked=100·(I776.5,peptide−I776.5,DMSO)/(I776.5,complete lysis−I776.5,DMSO).

Read-outs that look alike come from different tables or passages of the source. Where a SMILES comes first, the peptide text is derived from it. [ ]: non-standard residue; d: D form. The star is where a group is joined. dLys(Me3) = C[N+](C)(C)CCCC[C@@H](N)C(=O)O; NHCH2CH2OH = OCCN*; For = O=C*

In general, kinetic solubility refers to solubility judged after dilution from a stock solution rather than from solid. `CC(C)C[C@@H](NC(=O)[C@H](C)NC(=O)CNC(=O)[C@@H](NC=O)C(C)C)C(=O)N[C@@H](C)C(=O)N[C@@H](C(=O)N[C@H](C(=O)N[C@@H](C(=O)N[C@@H](Cc1c[nH]c2ccccc12)C(=O)N[C@H](CCCC[N+](C)(C)C)C(=O)N[C@@H](Cc1c[nH]c2ccccc12)C(=O)N[C@H](CC(C)C)C(=O)N[C@@H](Cc1c[nH]c2ccccc12)C(=O)N[C@H](CCCC[N+](C)(C)C)C(=O)N[C@@H](Cc1c[nH]c2ccccc12)C(=O)NCCO)C(C)C)C(C)C)C(C)C` [10, 14M] (For-VGA[dL]A[dV]V[dV]W[dLys(Me3)]W[dL]W[dLys(Me3)]W-NHCH2CH2OH): the “Minimum Inhibition Concentration B. Subtilius” value in series [1] worked out at 2.5 µM. For the same compound, the solubility (kinetic) at 30 min in series [2] turned out to be 30 µM. Further, in series [3], the “Minimum Inhibition Concentration S. Pyogenesis” value is 1.25 µM. In series [4], the “HC50 printed in the S. Aureus MIC cell” value stood at 1.25 µM and the “Minimum Inhibition Concentration S. Aureus” value was more than 10 µM. In series [5], the HC50 is more than 24; the “haemoglobin leakage from hRBCs” value was “[c] HC50 is the peptide concentration required to cause 50% of haemoglobin leakage from human red blood cells compared to the lysis of same amount cells by 1% TritonX-100. No haemoglogin leakage was observed in the cases of 10, 14M, 10, 12M or 10, 12, 14M at the concentration range tested”; the “Toxicity HC50” value was more than 24 µM. Moreover, in series [6], the KC50 was 20 and the “Toxicity KC50” value stood at 20 µM.

For orientation: EC50 means the concentration at which the effect is half-maximal. A higher EC50 goes with weaker potency. On to `CC(C)C[C@@H](NC(=O)[C@H](C)NC(=O)CNC(=O)[C@@H](NC=O)C(C)C)C(=O)N[C@@H](C)C(=O)N[C@@H](C(=O)N[C@H](C(=O)N[C@@H](C(=O)N[C@@H](Cc1c[nH]c2ccccc12)C(=O)N[C@H](CCCC[N+](C)(C)C)C(=O)N[C@@H](Cc1c[nH]c2ccccc12)C(=O)N[C@H](CCCC[N+](C)(C)C)C(=O)N[C@@H](Cc1c[nH]c2ccccc12)C(=O)N[C@H](CC(C)C)C(=O)N[C@@H](Cc1c[nH]c2ccccc12)C(=O)NCCO)C(C)C)C(C)C)C(C)C` [10, 12M] (For-VGA[dL]A[dV]V[dV]W[dLys(Me3)]W[dLys(Me3)]W[dL]W-NHCH2CH2OH), for which the solubility (kinetic) at 30 min in series [2] stood at 27 µM. For the same compound, in series [3], a half-maximal effect (EC50) was put at 1250 nM and the “Minimum Inhibition Concentration S. Pyogenesis” value is more than 10 µM. Moreover, in series [5], the HC50 is more than 10; the “haemoglobin leakage from hRBCs” value was “[c] HC50 is the peptide concentration required to cause 50% of haemoglobin leakage from human red blood cells compared to the lysis of same amount cells by 1% TritonX-100. No haemoglogin leakage was observed in the cases of 10, 14M, 10, 12M or 10, 12, 14M at the concentration range tested”; the “Toxicity HC50” value was more than 10 µM. In series [6], the KC50 is more than 10 and the “Toxicity KC50” value was more than 10 µM.

In series [2], `CC(C)C[C@@H](NC(=O)[C@H](C)NC(=O)CNC(=O)[C@@H](NC=O)C(C)C)C(=O)N[C@@H](C)C(=O)N[C@@H](C(=O)N[C@H](C(=O)N[C@@H](C(=O)N[C@@H](Cc1c[nH]c2ccccc12)C(=O)N[C@H](CCCC[N+](C)(C)C)C(=O)N[C@@H](Cc1c[nH]c2ccccc12)C(=O)N[C@H](CCCC[N+](C)(C)C)C(=O)N[C@@H](Cc1c[nH]c2ccccc12)C(=O)N[C@H](CCCC[N+](C)(C)C)C(=O)N[C@@H](Cc1c[nH]c2ccccc12)C(=O)NCCO)C(C)C)C(C)C)C(C)C` [10, 12, 14M] (For-VGA[dL]A[dV]V[dV]W[dLys(Me3)]W[dLys(Me3)]W[dLys(Me3)]W-NHCH2CH2OH) showed a kinetic solubility at 30 min of 55 µM. Further, in series [5], the HC50 is recorded as more than 95; the “haemoglobin leakage from hRBCs” value was “[c] HC50 is the peptide concentration required to cause 50% of haemoglobin leakage from human red blood cells compared to the lysis of same amount cells by 1% TritonX-100. No haemoglogin leakage was observed in the cases of 10, 14M, 10, 12M or 10, 12, 14M at the concentration range tested”; the “Toxicity HC50” value was more than 95 µM. In series [6], the KC50 is more than 95 and the “Toxicity KC50” value is more than 95 µM.

On to `CC(C)C[C@@H](NC(=O)[C@H](C)NC(=O)CNC(=O)[C@@H](NC=O)C(C)C)C(=O)N[C@@H](C)C(=O)N[C@@H](C(=O)N[C@H](C(=O)N[C@@H](C(=O)N[C@@H](Cc1c[nH]c2ccccc12)C(=O)N[C@H](CCCC[N+](C)(C)C)C(=O)N[C@@H](Cc1c[nH]c2ccccc12)C(=O)N[C@H](CC(C)C)C(=O)N[C@@H](Cc1c[nH]c2ccccc12)C(=O)N[C@H](CC(C)C)C(=O)N[C@@H](Cc1c[nH]c2ccccc12)C(=O)NCCO)C(C)C)C(C)C)C(C)C` [10M] (For-VGA[dL]A[dV]V[dV]W[dLys(Me3)]W[dL]W[dL]W-NHCH2CH2OH), for which, in series [1], the “Minimum Inhibition Concentration B. Subtilius” value is 2.5 µM. Further, the solubility (kinetic) at 30 min in series [2] was determined as 4.3 µM. The “Minimum Inhibition Concentration S. Pyogenesis” value in series [3] turned out to be 0.15 µM. The “Minimum Inhibition Concentration S. Aureus” value in series [4] is 2.5 µM. In series [5], the HC50 is 19 and the “Toxicity HC50” value stood at 19 µM. In series [6], the KC50 was 0.04 and the “Toxicity KC50” value was determined as 0.04 µM.

As to `CC(C)C[C@@H](NC(=O)[C@H](C)NC(=O)CNC(=O)[C@@H](NC=O)C(C)C)C(=O)N[C@@H](C)C(=O)N[C@@H](C(=O)N[C@H](C(=O)N[C@@H](C(=O)N[C@@H](Cc1c[nH]c2ccccc12)C(=O)N[C@H](CC(C)C)C(=O)N[C@@H](Cc1c[nH]c2ccccc12)C(=O)N[C@H](CCCC[N+](C)(C)C)C(=O)N[C@@H](Cc1c[nH]c2ccccc12)C(=O)N[C@H](CC(C)C)C(=O)N[C@@H](Cc1c[nH]c2ccccc12)C(=O)NCCO)C(C)C)C(C)C)C(C)C` [12MeK] (For-VGA[dL]A[dV]V[dV]W[dL]W[dLys(Me3)]W[dL]W-NHCH2CH2OH), the HC50 in series [5] (Table 8) is listed as more than 10. Also, the KC50 in series [6] (Table 8) is recorded as 0.2.

`CC(C)C[C@@H](NC(=O)[C@H](C)NC(=O)CNC(=O)[C@@H](NC=O)C(C)C)C(=O)N[C@@H](C)C(=O)N[C@@H](C(=O)N[C@H](C(=O)N[C@@H](C(=O)N[C@@H](Cc1c[nH]c2ccccc12)C(=O)N[C@H](CC(C)C)C(=O)N[C@@H](Cc1c[nH]c2ccccc12)C(=O)N[C@H](CCCC[N+](C)(C)C)C(=O)N[C@@H](Cc1c[nH]c2ccccc12)C(=O)N[C@H](CCCC[N+](C)(C)C)C(=O)N[C@@H](Cc1c[nH]c2ccccc12)C(=O)NCCO)C(C)C)C(C)C)C(C)C` [1214MeK] (For-VGA[dL]A[dV]V[dV]W[dL]W[dLys(Me3)]W[dLys(Me3)]W-NHCH2CH2OH) returned a KC50 in series [6] (Table 8) of more than 10.

As for `CC(C)C[C@@H](NC(=O)[C@H](C)NC(=O)CNC(=O)[C@@H](NC=O)C(C)C)C(=O)N[C@@H](C)C(=O)N[C@@H](C(=O)N[C@H](C(=O)N[C@@H](C(=O)N[C@@H](Cc1c[nH]c2ccccc12)C(=O)N[C@H](CC(C)C)C(=O)N[C@@H](Cc1c[nH]c2ccccc12)C(=O)N[C@H](CC(C)C)C(=O)N[C@@H](Cc1c[nH]c2ccccc12)C(=O)N[C@H](CCCC[N+](C)(C)C)C(=O)N[C@@H](Cc1c[nH]c2ccccc12)C(=O)NCCO)C(C)C)C(C)C)C(C)C` [14M] (For-VGA[dL]A[dV]V[dV]W[dL]W[dL]W[dLys(Me3)]W-NHCH2CH2OH), in series [1], the “Minimum Inhibition Concentration B. Subtilius” value came to 2.5 µM. The compound also came in with a kinetic solubility at 30 min in series [2] of 3.6 µM. The “Minimum Inhibition Concentration S. Pyogenesis” value in series [3] is 0.078 µM. In addition, in series [4], the “Minimum Inhibition Concentration S. Aureus” value was in the range of 1.25 to 2.5 µM. In series [5], the HC50 is given as 24 and the “Toxicity HC50” value was found to be 24 µM. Also, in series [6], the KC50 was 0.015 and the “Toxicity KC50” value worked out at 0.015 µM.
